Read-outs that look alike come from different tables or passages of the source.
Tests used:
RON = target: T1, RON (Homo sapiens, UniProt Q04912); experiment: sfRON cell mechanistic assay (HeLa), phosphorylated RON; type: cell-based
T1 construct: expressed in transfected cells; host or cells: HeLa
T1 sequence (Q04912 913-1400 limits assumed): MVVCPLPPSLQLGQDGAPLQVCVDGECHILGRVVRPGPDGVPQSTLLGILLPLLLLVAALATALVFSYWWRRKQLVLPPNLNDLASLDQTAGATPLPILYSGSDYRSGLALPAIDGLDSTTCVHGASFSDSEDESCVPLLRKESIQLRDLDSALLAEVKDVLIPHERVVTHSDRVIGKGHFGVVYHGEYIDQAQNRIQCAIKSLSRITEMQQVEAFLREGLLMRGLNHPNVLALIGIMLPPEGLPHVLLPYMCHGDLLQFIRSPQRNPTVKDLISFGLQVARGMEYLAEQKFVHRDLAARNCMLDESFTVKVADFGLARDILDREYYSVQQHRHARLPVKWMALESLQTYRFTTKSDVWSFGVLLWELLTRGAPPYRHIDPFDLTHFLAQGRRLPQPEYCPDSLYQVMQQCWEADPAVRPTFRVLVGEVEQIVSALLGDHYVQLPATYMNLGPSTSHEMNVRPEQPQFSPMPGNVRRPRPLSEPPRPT
Description: The cellular activity of the compounds of the present invention against RON may be determined by the following procedure. HeLa cells were plated in Falcon 3072 96-well plates in growth media (DMEM, 10% FBS, 1% L-glutamine) at a density of 10000 cells/well and incubated at 37° C., 5% CO2 overnight. The following day, cells were transfected with 0.2 μg sfRON-pcDNA plasmid DNA with 0.5 μL Lipofectamine2000 per well in the presence of 50 μL OPTI-MEM, incubated at 37° C., 5% CO2 overnight. Costar 3915 96-well assay plates were coated with rabbit Anti-RON antibody at 2.0 μg/mL, sealed, and incubated overnight at 4° C. On the third day, coated plates were washed with PBS and blocked with 3% BSA. For the sfRON transfected cells, one-tenth volume of a 10× concentration of compounds was added to the wells in a 6-point dilution series. The dilution series was composed of an initial 1:5 dilution of a 10 mM DMSO stock solution of compound in DMSO, followed by a 1:10 dilution in growth media, for a final DMSO concentration on cells of 0.5%. Control wells were treated with 0.5% DMSO. The typical range of dilution was 10 μM to 3 nM. Once compound was added to the cells, plates were incubated for four hours at 37° C., 5% CO2. Plates were then washed in PBS, and lysed in triton-based lysis buffer. Lysates were transferred to the blocked capture plates. The phosphorylated RON levels were measured by incubating with a Goat polyclonal antibody against phosphorylated RON ([pYpY1238/1239]) followed by an anti-Goat antibody conjugated to HRP. Signal was measured on a Wallac Victor plate reader with luminance. The DMSO signal of the control wells was defined as 100% and the percent of inhibition of phosphorylated RON was expressed as percent of control. IC50 values were determined from the percent of control data using a standard four-parameter model.
(§1) The IC50 values of exemplary compounds of the present invention determined in a sfRON cell mechanistic assay using the HeLa cell line according to the procedures described herein in at least duplicate experiments are abbreviated as follows and are shown in Table 3: A, IC50≦0.03 μM; B, 0.03 μM<IC50≦0.1 μM; C, 0.1 μM<IC50≦1 μM; D, 1 μM<IC50≦3 μM; ND, not determined. The Example # of Table 3 corresponds to the compound example number as illustrated in the Examples section.

Karpas-299 cells = experiment: Karpas-299 cell proliferation assay (CellTiter-Glo); type: cell-based; details: Homo sapiens, 72 h; Karpas-299 cell line (NPM-ALK), 3 days incubation, at least duplicate experiments; read-out: Prolif. IC50
Description: The effect of inhibitors on the proliferation of Karpas-299 cells (DSMZ no. ACC 31) was determined using the following protocol. Karpas-299 cells were plated in 96-well white tissue culture treated plates (Corning 3917) in growth medium (RPMI, 10% FCS) at a density of 5000 cells/well in a total volume of 135 μL and incubated at 37° C., 5% CO2, 95% humidity overnight. The following day, one-tenth volume of a 10× concentration of compounds was added to the wells in an 8-point dilution series. Compounds were serially diluted (1:4) in DMSO from a 10 mM stock solution prior to dilution in growth media to the 10× working concentrations (5% DMSO). Final concentration of DMSO in compound-treated wells was 0.5%. Control wells containing growth media or growth media/0.5% DMSO were included in all test plates. The typical dilution range is 10 μM to 0.1 nM. Once the compounds were added to the cells, plates were incubated for 3 days at 37° C., 5% CO2 at 95% humidity. After 72 hours, all cells and reagents were equilibrated to room temperature and 15 μL of CellTiter-Glo reagent (Promega #G7573) was added to each well. Plates were shaken on a platform for 10 minutes at room temperature prior to reading luminescence. The value of the signal of the control wells was set as 100% growth and growth inhibition was expressed as percent of control. IC50 values were determined from the percent of control data using a standard four-parameter curve fit equation.
as §1, with “a” for “a sfRON”, “cell proliferation” for “cell mechanistic”, “the Karpas-299” for “the HeLa”, “Table 5:” for “Table 3:”, “Table 5” for “Table 3”
The Karpas-299 cell line has a t(2;5) chromosomal translocation and expresses the NPM-ALK fusion protein, resulting in constitutively active ALK. […] Ther. 6(12):3314-22 (2007)]. With this “ALK-driven” cell line by ALK, the cell proliferation IC50 values can thus be used as surrogate for the p-ALK cell mechanistic IC50 values.

[1] = Table 6: comparison X = C1-3haloalkyl vs. X = C1-3alkyl, read-out: sfRON cell mechanistic
[2] = sfRON transfected HeLa cells, four hours incubation, inhibition of phosphorylated RON, at least duplicate experiments, read-out: sfRON mech IC50

IC50 (RON; [1]) [nM] | IC50 (RON; [2]) [nM] | IC50 (Karpas-299 cells) [nM] | SMILES
30 to 100 | 30 to 100 | 30 to 100 | COc1ccc(F)c(Cl)c1[C@@H](CF)c1c[nH]c2ncc(-c3cnn([C@H]4CC[C@H](O)CC4)c3)cc12 [Example 3, trans-4-(4-{3-[(1S)-1-(2-chloro-3-fluoro-6-methoxyphenyl)-2-fluoroethyl]-1H-pyrrolo[2,3-b]pyridin-5-yl}-1H-pyrazol-1-yl)cyclohexanol]
100 to 1000 | 100 to 1000 | 100 to 1000 | Cn1cc(-c2cnc3[nH]cc(C(CF)c4c(Cl)ccc(F)c4Cl)c3c2)cn1 (stereo not drawn) [Example 1, 3-[1-(2,6-Dichloro-3-fluorophenyl)-2-fluoroethyl]-5-(1-methyl-1H-pyrazol-4-yl)-1H-pyrrolo[2,3-b]pyridine]
≤ 30 | ≤ 30 | ≤ 30 | O[C@H]1CC[C@H](n2cc(-c3cnc4[nH]cc([C@H](CF)c5c(OC(F)F)ccc(F)c5Cl)c4c3)cn2)CC1 [Example 5, trans-4-[4-(3-{(1S)-1-[2-Chloro-6-(difluoromethoxy)-3-fluorophenyl]-2-fluoroethyl}-1H-pyrrolo[2,3-b]pyridin-5-yl)-1H-pyrazol-1-yl]cyclohexanol]
30 to 100 | 30 to 100 | 100 to 1000 | O[C@H]1CC[C@H](n2cc(-c3cnc4[nH]cc([C@@H](CF)c5c(OC(F)F)ccc(F)c5Cl)c4c3)cn2)CC1 [Example 4, trans-4-[4-(3-{(1R)-1-[2-Chloro-6-(difluoromethoxy)-3-fluorophenyl]-2-fluoroethyl}-1H-pyrrolo[2,3-b]pyridin-5-yl)-1H-pyrazol-1-yl]cyclohexanol]

Reference: patent US20140088114A1, “FUSED BICYCLIC KINASE INHIBITORS” (OSI Pharmaceuticals ,LLC, priority 2011, published 2014)
